Results as given in patent US20210353668A1, “CALCIUM COMPOSITION” (PerformaNat GmbH, priority 2018, published 2021).

Tested on: Ruminal epithelium of sheep
Assay: Measurement of Ca-flux (45Ca2+ net flux) across ruminal epithelium in the Ussing chamber
Assay type: cell-based
Method: Measurement of Ca-Flux Across Ruminal Epithelium in the Ussing-Chamber
Ruminal epithelium of sheep was mounted in a conventional Ussing chamber. Chambers contained 16 ml of serosal or mucosal buffer, which was circulated and gassed by a gas lift system (5% CO2/95% O2).
In this experiment 24 chambers were divided into three groups. Group 1 (mucosal buffer containing 1.8 mM CaCl2), group 2 (mucosal buffer containing 3.6 mM CaCl2) and group 3 (containing 7.2 mM CaCl2). The same buffer was present on the serosal side of all chambers (Table 1). Each group (1,2,3) was again divided into two parts. One was defined as control group one as EO group. It is noted that the amounts correspond to a normal Ca^2+ concentration in the rumen (1.8 mM) (referred to as Comparative Example A) and to treated rumen corresponding to the administration of about 13 g Ca (3.6 mM) and 26 g Ca (7.2 mM) (referred to as Examples 1 and 2, respectively).
After an equilibrating time of around 30 minutes ^45Ca^2+ (40 kBq per 16 ml chamber) was added to either to the mucosal or serosal “hot” side.
Depending on the group 16 μl ethanol (Control) or 16 μl essential oil (EO) were added to the mucosal side of the chamber. The essential oil used is menthol, and the actual menthol concentration obtained is 50 μM.
After 70 minutes the first sample from the “cold” side was taken, followed by five samples of each 900 μl which were taken in an interval of 30 minutes. The sample volume was replaced by an aliquot of the respective buffer. Radioactivity was measured using a β-counter (LKB Wallace-Perkin-Elmer, Überlingen, Germany).
Epithelia were paired after sorting for transepithelial conductance (Gt) and the net calcium flux was calculated from the difference between mucosal to serosal flux and serosal to mucosal flux for paired epithelia.
The net transport of calcium across the isolated ruminal epithelium was calculated by subtracting the calcium secretion (serosal to mucosal transport) from the calcium absorption (mucosal to serosal transport) reflecting the real absorption of calcium from the rumen to the blood side. For statistical analysis linear mixed effect models for repeated measures were calculated using mucosal calcium concentration and the addition of essential oils as fixed effects and animal as random effect (SAS System, method MIXED PROC). The effects of calcium concentration and the addition of essential oils was calculated as well as their interaction. Furthermore, the effect of sampling time was included to the model. Effects were evaluated for the repeated measures of the consecutive flux periods.

CC1CCC(C(C)C)C(O)C1 (stereo not shown) [menthol]
calcium flux compared to the control (in words) (all three Ca concentrations (1.8, 3.6, 7.2 mM), menthol present): increased
increase of calcium absorption by addition of EO (mucosal Ca 1.8 mM): 6.06 nmol/cm^2/h
increase of calcium absorption by addition of EO (mucosal Ca 3.6 mM): 2.52 nmol/cm^2/h
increase of calcium absorption by addition of EO (mucosal Ca 7.2 mM): 8.22 nmol/cm^2/h
